Assay results as given in PMC7269503 (Antimicrobial Agents and Chemotherapy, 2020).
≈ marks a conversion by molar mass, not a printed value.

What was measured:
[1] = system: OPC-167832-resistant isolates of M. tuberculosis H37Rv; format: cell-based
[2] = female, ICR, mouse, in vivo, po, 2.5 mg/kg

O=C1CCc2c(OC[C@]3(O)CCN(c4c(F)cc(Cl)cc4F)C[C@H]3O)ccc(F)c2N1 [OPC-167832]
MIC against Rv0678 mutants [1]: 1 ng/mL (≈ 2.19 nM) | AUCt/12 h/MIC [2]: 95 fold | Cmax/MIC [2]: 314 fold
